Patent publication US20250320261A1, “ANTIBACTERIAL PEPTIDE” (priority 2021, published 2025)
Where two headings read alike, the source gives them in different places. Peptide text beside a SMILES is read from it. * marks the point of attachment. Heptanoyl = CCCCCCC(=O)*; Octanoyl = CCCCCCCC(=O)*; Hexanoyl = CCCCCC(=O)*; Pentanoyl = CCCCC(=O)*

Columns and labels:
[1] = test system: S. aureus (ATCC 29213, MSSA); type: cell-based, Staphylococcus aureus; settings: for antimicrobial activity against S. aureus (in words): compared with peptide #6 or the parent lipopeptide
Description: (§1) S. aureus (ATCC 29213, MSSA, ATCC, Manassas, VA) and E. coli (K-12 MG1655) were streaked on Luria-Bertani (LB) agar plates and incubated at 37° C. overnight. Single colonies were inoculated into 5 ml of LB broth and incubated on a shaker (400 rpm) at 37° C. overnight. The bacterial concentrations were determined by viable count and were adjusted to correlate with approximately 10^9 CFU/ml.
(§2) The broth microdilution method was used to determine minimal inhibitory concentration (MIC) and minimal bactericidal concentration (MBC). Two-fold serial dilutions of the peptides were used, and the final concentrations ranged from 0.19-100 μM. The effect of peptide-antibiotic combinations was investigated by performing a checkerboard analysis. […] The fractional inhibitory concentration (FIC) and fractional bactericidal concentration (FBC) were calculated by the equation (MIC or MBC of peptide in combination/MIC or MBC of peptide […] alone)+(MIC or MBC of antibiotic in combination/MIC or MBC of antibiotic alone). Synergy was defined as FIC/FBC≤0.5, additive when 0.5<FIC/FBC≤1, indifferent when 1<FIC/FBC<2 and antagonistic when FIC/FBC≥2. All experiments were repeated at least three times.

[2] = test system: E. coli (K-12 MG1655); assay: Broth microdilution MIC/MBC; type: cell-based, Escherichia coli; settings: for antimicrobial activity against E. coli (in words): compared with peptide #6 or the parent lipopeptide
Description: as §1, §2

[3] = test system: human erythrocytes; type: cell-based; settings: red cells of human, 1 h, 100 μM
Description: FIG. 4. Hemolytic activity of SEQ ID NO 1 and SEQ ID NO 3. The hemolytic activity was determined on human erythrocytes (15% suspended in PBS) after exposure to A) SEQ ID NO: 3 with increasing length of fatty acid chains and full length PLNC8 β, B) L-enantiomers of SEQ ID NO: 3 with a fatty acid chain length of 5, 6, and 7 carbon (L-6-C5-N; L-6-C6-N; L-6-C7-N), and L-enantiomers of SEQ ID NO 1 with a fatty acid chain length of 5, 6, and 7 carbon (L-6-C5-N-Leu; L-6-C6-N-Leu; L-6-C7-N-Leu), C) D-enantiomers of SEQ ID NO: 3 with a fatty acid chain length of 5, 6, and 7 carbon (D-6-C5-N; D-6-C6-N; D-6-C7-N), and D-enantiomers of SEQ ID NO: 1 with a fatty acid chain length of 5, 6, and 7 carbon (D-6-C5-N-Leu; D-6-C6-N-Leu; D-6-C7-N-Leu). Erythrocytes were exposed to the peptides using the indicated concentrations for 1 h. […]
The hemolytic activity of the peptides was investigated by collecting blood from healthy volunteers in heparinized vacutainers. […] The plates were incubated for 1 h at 37° C. followed by centrifugation for 5 min at 900×g and absorbance measurement of the supernatants at 540 nm. Hemolytic activity (%) was calculated by subtracting the negative control from all values and normalization against the positive control (0.5% Triton X-100), that was set to 100%. […]

[4] = test system: E. coli; assay: Checkerboard analysis of peptide-antibiotic combinations; type: cell-based, Escherichia coli; settings: combined with different antibiotics
Description: as §2

[5] = test system: S. aureus; assay: as above; type: cell-based, Staphylococcus aureus; settings: combined with different antibiotics
Description: as §2

[6] = test system: HaCaT keratinocytes infected with S. aureus; assay: LDH cytotoxicity and cytokine secretion of S. aureus-infected HaCaT keratinocytes; type: cell-based, human; settings: 24 h, vs positive control
Description: After 24 hours of exposure to Staphylococcus aureus (MOI=0.1), and three administrations of L-6-C5-N (2.5, 5, 10, 20 and 40 μM) at 1, 5 and 9 hours post infection. (A) Cytotoxicity, LDH levels normalized against negative control. (B) Interleukin-6. (C) Tumor Necrosis Factor-α. (D) CXC motif ligand 8 levels. (−) indicates negative control (uninfected/unstimulated cells), (+) indicates positive control (S. aureus-infected cells). Statistical analysis was done by ANOVA with Tukey's post hoc test. P-values are indicated by *=[…], ***=0.001.
It was evaluated whether the peptide SEQ ID NO:3 having L-amino acids and an acetylation with five carbon atoms at the N-terminal portion (L-6-C5-N) could effectively reduce an inflammatory response to a bacterial infection to HaCaT keratinocytes. After 24 hours of exposure to Staphylococcus aureus (MOI=0.1), and three administrations of L-6-C5-N SEQ ID NO:3 in different concentrations (2.5, 5, 10, 20 and 40 μM) at 1, 5 and 9 hours post infection, a LDH cytotoxicity assay was performed and IL-6, TNF-α and CXCL-8 concentrations were measured. The symbol (−) indicates negative control (uninfected/unstimulated cells), (+) indicates positive control (S. aureus-infected cells).

Molecule: Ac-LGQKILRSARKFGKDIEKSF-NH2 [Peptide 14]
- MBC S. aureus ([1]; ATCC 29213, 20 h): >100 µM
- MIC S. aureus ([1]; ATCC 29213, 20 h): >100 µM
- MBC E. coli ([2]; broth microdilution): >100 µM
- MIC E. coli ([2]; broth microdilution): >100 µM

Molecule: CCCCCCC(=O)N[C@@H](CC(C)C)C(=O)NCC(=O)N[C@H](C(=O)N[C@@H](CCCCN)C(=O)N[C@H](C(=O)N[C@@H](CC(C)C)C(=O)N[C@@H](Cc1c[nH]c2ccccc12)C(=O)N[C@@H](CO)C(=O)N[C@@H](C)C(=O)N[C@@H](Cc1ccc(O)cc1)C(=O)N[C@@H](CCCCN)C(=O)N[C@@H](Cc1c[nH]cn1)C(=O)N[C@@H](CCCNC(=N)N)C(=O)N[C@@H](CCCCN)C(=O)N[C@H](C(=O)N[C@H](C(N)=O)[C@@H](C)CC)[C@@H](C)O)[C@@H](C)CC)[C@@H](C)CC [Peptide 6-C7-N] (Heptanoyl-LGIKILWSAYKHRKTI-NH2)
- hemolytic activity [3]: around 10%

Molecule: Ac-LGIKILRSARKFGKVIEKSF-NH2 [Peptide 15]
- MBC S. aureus ([1]; ATCC 29213, 20 h): >100 µM
- MIC S. aureus ([1]; ATCC 29213, 20 h): >100 µM
- MBC E. coli ([2]; broth microdilution): >100 µM
- MIC E. coli ([2]; broth microdilution): >100 µM

Molecule: Ac-SVPTSVYTLGIKILWSAYKHRKTIEKSFNKGFYH-NH2 (N-terminus and C-terminus assumed) [PLNC8 β, reference compound]
- MBC S. aureus ([1]; ATCC 29213): >100 µM
- MIC S. aureus ([1]; ATCC 29213): >100 µM
- MBC E. coli ([2]; K-12): >100 µM
- MIC E. coli ([2]; K-12): >100 µM
- antimicrobial activity against E. coli (in words) [2]: no activity

Molecule: Ac-LWSAYKHR-NH2 [Peptide S3]
- MBC E. coli ([2]; broth microdilution): >100 µM
- MIC E. coli ([2]; broth microdilution): >100 µM

Molecule: Ac-LGQKILRSARKFGKTIEKSF-NH2 [Peptide 13]
- MBC S. aureus ([1]; ATCC 29213, 20 h): >100 µM
- MIC S. aureus ([1]; ATCC 29213, 20 h): >100 µM
- MBC E. coli ([2]; broth microdilution): >100 µM
- MIC E. coli ([2]; broth microdilution): >100 µM

Molecule: Ac-KILWSAYKHR-NH2 [Peptide S1]
- MBC E. coli ([2]; broth microdilution): >100 µM
- MIC E. coli ([2]; broth microdilution): >100 µM

Molecule: 6-C2-N: peptide #6 (SEQ ID NO: 3) acetylated with two carbon atoms at the N-terminal (Ac-LGIKILWSAYKHRKTI-NH2) [Peptide 6-C2-N]
- interaction with antibiotics (FIC/FBC) against E. coli [4]: additive or synergistic
- interaction with antibiotics (FIC/FBC) against S. aureus [5]: additive or synergistic

Molecule: Ac-LLGIKILWSARKFGKVIEKSF-NH2 [Peptide 17]
- MBC S. aureus ([1]; ATCC 29213, 20 h): >100 µM
- MIC S. aureus ([1]; ATCC 29213, 20 h): >100 µM
- MBC E. coli ([2]; broth microdilution): >100 µM
- MIC E. coli ([2]; broth microdilution): >100 µM

Molecule: 6-C6-N: L-enantiomer of SEQ ID NO: 3 with a fatty acid chain length of 6 carbon (Hexanoyl-LGIKILWSAYKHRKTI-NH2; also: C6 fatty acid chain, site not given here) [Peptide 6-C6-N]
- antimicrobial activity against S. aureus (in words) [1]: maximum
- antimicrobial activity against E. coli (in words) [2]: maximum

Molecule: 6-C5-N: SEQ ID NO:3 having L-amino acids and an acetylation with five carbon atoms at the N-terminal portion (Pentanoyl-LGIKILWSAYKHRKTI-NH2) [Peptide 6-C5-N]
- interaction with antibiotics (FIC/FBC) against E. coli [4]: additive or synergistic
- antimicrobial activity against S. aureus (in words) [1]: maximum
- antimicrobial activity against E. coli (in words) [2]: maximum
- interaction with antibiotics (FIC/FBC) against S. aureus [5]: additive or synergistic
- IL-6 secretion, infected HaCaT ([6]; MOI=0.1, 2.5-40 μM at 1, 5 and 9 h post infection): significantly reduced
- cell lysis (LDH) of S. aureus-infected HaCaT keratinocytes ([6]; MOI=0.1, 2.5-40 μM given at 1, 5 and 9 h post infection): significantly reduced

Molecule: Ac-ILWSAYKHR-NH2 [Peptide S2]
- MBC E. coli ([2]; broth microdilution): >100 µM
- MIC E. coli ([2]; broth microdilution): >100 µM

Molecule: Ac-LGIKILWSARKFGKVIEKSF-NH2 [Peptide 16]
- MBC S. aureus ([1]; ATCC 29213, 20 h): >100 µM
- MIC S. aureus ([1]; ATCC 29213, 20 h): >100 µM
- MBC E. coli ([2]; broth microdilution): >100 µM
- MIC E. coli ([2]; broth microdilution): >100 µM

Molecule: Ac-TLGIKILWSAYKHRKT-NH2 [Peptide 5]
- MBC S. aureus ([1]; ATCC 29213, 20 h): >100 µM
- MIC S. aureus ([1]; ATCC 29213, 20 h): >100 µM
- MBC E. coli ([2]; broth microdilution): >100 µM
- MIC E. coli ([2]; broth microdilution): >100 µM

Molecule: Ac-LGIKILWSAYKHRKTI-NH2 [Peptide 6]
- MBC S. aureus ([1]; broth microdilution): 100 µM
- MIC S. aureus ([1]; broth microdilution): 100 µM
- MBC E. coli ([2]; broth microdilution): 50 µM
- MIC E. coli ([2]; broth microdilution): 50 µM
- antimicrobial activity against E. coli (in words) [2]: comparable to the activity of LL-37

Molecule: Ac-WSAYK-NH2 [Peptide S6, WSAYK]
- MBC E. coli ([2]; broth microdilution): >100 µM
- MIC E. coli ([2]; broth microdilution): >100 µM

Molecule: Ac-WSAYKHR-NH2 [Peptide S4, WSAYKHR]
- MBC E. coli ([2]; broth microdilution): >100 µM
- MIC E. coli ([2]; broth microdilution): >100 µM

Molecule: Ac-LLGIKILWKARKFGKVIEKSF-NH2 [Peptide 18]
- MBC S. aureus ([1]; ATCC 29213, 20 h): >100 µM
- MIC S. aureus ([1]; ATCC 29213, 20 h): >100 µM
- MBC E. coli ([2]; broth microdilution): >100 µM
- MIC E. coli ([2]; broth microdilution): 100 µM

Molecule: Ac-WSAYKH-NH2 [Peptide S5, WSAYKH]
- MBC E. coli ([2]; broth microdilution): >100 µM
- MIC E. coli ([2]; broth microdilution): >100 µM

Molecule: CCCCCCCC(=O)N[C@@H](CC(C)C)C(=O)NCC(=O)N[C@H](C(=O)N[C@@H](CCCCN)C(=O)N[C@H](C(=O)N[C@@H](CC(C)C)C(=O)N[C@@H](Cc1c[nH]c2ccccc12)C(=O)N[C@@H](CO)C(=O)N[C@@H](C)C(=O)N[C@@H](Cc1ccc(O)cc1)C(=O)N[C@@H](CCCCN)C(=O)N[C@@H](Cc1c[nH]cn1)C(=O)N[C@@H](CCCNC(=N)N)C(=O)N[C@@H](CCCCN)C(=O)N[C@H](C(=O)N[C@H](C(N)=O)[C@@H](C)CC)[C@@H](C)O)[C@@H](C)CC)[C@@H](C)CC [Peptide 6-C8-N] (Octanoyl-LGIKILWSAYKHRKTI-NH2)
- antimicrobial activity against S. aureus (in words) [1]: did not affect the antimicrobial activity
- MBC E. coli ([2]; broth microdilution): 12.5 µM
- MIC E. coli ([2]; broth microdilution): 12.5 µM

Molecule: Ac-YTLGIKILWSAYKHRK-NH2 [Peptide 4]
- MBC S. aureus ([1]; ATCC 29213, 20 h): >100 µM
- MIC S. aureus ([1]; ATCC 29213, 20 h): >100 µM
- MBC E. coli ([2]; broth microdilution): >100 µM
- MIC E. coli ([2]; broth microdilution): >100 µM
